Measured values taken from PubChem BioAssay (NCI).
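All cell lines were grown in 96-well plates and treated with compound for 48 hours. At the GI50, growth is halved. TGI: total growth inhibition.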

Assays:
Assay in all cases: NCI anticancer screen, dose series, 48 h
EKVX NSCLC = test system: EKVX NSCLC
786-0 renal = test system: 786-0 renal
MDA-MB-435 = test system: MDA-MB-435
HCT-15 colon = test system: HCT-15 colon
HL-60(TB) leukemia = test system: HL-60(TB) leukemia
MOLT-4 leukemia = test system: MOLT-4 leukemia
A549 NSCLC = test system: A549 NSCLC
OVCAR-8 ovarian = test system: OVCAR-8 ovarian
KM12 colon = test system: KM12 colon
SK-MEL-28 melanoma = test system: SK-MEL-28 melanoma
NCI-H460 lung = test system: NCI-H460 lung
HT29 colon = test system: HT29 colon
NCI/ADR-RES ovarian = test system: NCI/ADR-RES ovarian
A498 renal = test system: A498 renal
OVCAR-3 ovarian = test system: OVCAR-3 ovarian
UACC-62 melanoma = test system: UACC-62 melanoma
RPMI-8226 leukemia = test system: RPMI-8226 leukemia
MDA-MB-231 breast = test system: MDA-MB-231 breast
SF-295 CNS = test system: SF-295 CNS
NCI-H226 lung = test system: NCI-H226 lung
NCI-H522 lung = test system: NCI-H522 lung
SW-620 colon = test system: SW-620 colon
U251 CNS = test system: U251 CNS
PC-3 prostate = test system: PC-3 prostate
HS 578T breast = test system: HS 578T breast
SNB-19 CNS = test system: SNB-19 CNS
MALME-3M melanoma = test system: MALME-3M melanoma
SK-MEL-5 melanoma = test system: SK-MEL-5 melanoma
HCT-116 colon = test system: HCT-116 colon
NCI-H23 lung = test system: NCI-H23 lung
UACC-257 melanoma = test system: UACC-257 melanoma
LOX IMVI melanoma = test system: LOX IMVI melanoma
SR leukemia = test system: SR leukemia
OVCAR-5 ovarian = test system: OVCAR-5 ovarian
SN12C renal = test system: SN12C renal
DU-145 prostate = test system: DU-145 prostate
MCF7 breast = test system: MCF7 breast
HOP-62 NSCLC = test system: HOP-62 NSCLC
CAKI-1 renal = test system: CAKI-1 renal
T-47D breast = test system: T-47D breast
IGROV1 ovarian = test system: IGROV1 ovarian
SK-OV-3 ovarian = test system: SK-OV-3 ovarian
COLO 205 colon = test system: COLO 205 colon
CCRF-CEM leukemia = test system: CCRF-CEM leukemia
OVCAR-4 ovarian = test system: OVCAR-4 ovarian
UO-31 renal = test system: UO-31 renal
ACHN renal = test system: ACHN renal
RXF 393 renal = test system: RXF 393 renal
M14 melanoma = test system: M14 melanoma
HCC-2998 colon = test system: HCC-2998 colon
K-562 leukemia = test system: K-562 leukemia
BT-549 breast = test system: BT-549 breast
HOP-92 NSCLC = test system: HOP-92 NSCLC
SK-MEL-2 melanoma = test system: SK-MEL-2 melanoma
SF-268 CNS = test system: SF-268 CNS
TK-10 renal = test system: TK-10 renal
SF-539 CNS = test system: SF-539 CNS
SNB-75 CNS = test system: SNB-75 CNS

SMILES: CC(=O)OC1CN2CCC1CC2 (stereo not given)
- TGI (EKVX NSCLC): > 100 µM
- TGI (786-0 renal): > 100 µM
- TGI (MDA-MB-435): > 100 µM
- TGI (HCT-15 colon): > 100 µM
- TGI (HL-60(TB) leukemia): > 100 µM
- TGI (MOLT-4 leukemia): > 100 µM
- TGI (A549 NSCLC): > 100 µM
- TGI (OVCAR-8 ovarian): > 100 µM
- TGI (KM12 colon): > 100 µM
- TGI (SK-MEL-28 melanoma): > 100 µM
- TGI (NCI-H460 lung): > 100 µM
- TGI (HT29 colon): > 100 µM
- TGI (NCI/ADR-RES ovarian): > 100 µM
- TGI (A498 renal): > 100 µM
- TGI (OVCAR-3 ovarian): > 100 µM
- TGI (UACC-62 melanoma): > 100 µM
- TGI (RPMI-8226 leukemia): > 100 µM
- TGI (MDA-MB-231 breast): > 100 µM
- TGI (SF-295 CNS): > 100 µM
- TGI (NCI-H226 lung): > 100 µM
- TGI (NCI-H522 lung): > 100 µM
- TGI (SW-620 colon): > 100 µM
- TGI (U251 CNS): > 100 µM
- TGI (PC-3 prostate): > 100 µM
- TGI (HS 578T breast): > 100 µM
- TGI (SNB-19 CNS): > 100 µM
- TGI (MALME-3M melanoma): > 100 µM
- TGI (SK-MEL-5 melanoma): > 100 µM
- TGI (HCT-116 colon): > 100 µM
- TGI (NCI-H23 lung): > 100 µM
- TGI (UACC-257 melanoma): > 100 µM
- TGI (LOX IMVI melanoma): > 100 µM
- TGI (SR leukemia): > 100 µM
- TGI (OVCAR-5 ovarian): > 100 µM
- TGI (SN12C renal): > 100 µM
- TGI (DU-145 prostate): > 100 µM
- TGI (MCF7 breast): > 100 µM
- TGI (HOP-62 NSCLC): > 100 µM
- TGI (CAKI-1 renal): > 100 µM
- TGI (T-47D breast): > 100 µM
- TGI (IGROV1 ovarian): > 100 µM
- TGI (SK-OV-3 ovarian): > 100 µM
- TGI (COLO 205 colon): > 100 µM
- TGI (CCRF-CEM leukemia): > 100 µM
- TGI (OVCAR-4 ovarian): > 100 µM
- TGI (UO-31 renal): > 100 µM
- TGI (ACHN renal): > 100 µM
- TGI (RXF 393 renal): > 100 µM
- TGI (M14 melanoma): > 100 µM
- TGI (HCC-2998 colon): > 100 µM
- TGI (K-562 leukemia): > 100 µM
- TGI (BT-549 breast): > 100 µM
- TGI (HOP-92 NSCLC): > 100 µM
- TGI (SK-MEL-2 melanoma): > 100 µM
- TGI (SF-268 CNS): > 100 µM
- TGI (TK-10 renal): > 100 µM
- TGI (SF-539 CNS): > 100 µM

SMILES: COc1cc2c(/C=C3/C(=O)Nc4c3ccc3ccccc43)c(Cl)n(C)c2cc1C
- GI50 (EKVX NSCLC): 0.275 µM
- TGI (EKVX NSCLC): 6.29 µM
- GI50 (MDA-MB-435): < 0.0132 µM
- TGI (MDA-MB-435): < 0.0197 µM
- GI50 (HCT-15 colon): 0.899 µM
- TGI (HCT-15 colon): 12.6 µM
- GI50 (HL-60(TB) leukemia): 0.0597 µM
- TGI (HL-60(TB) leukemia): > 100 µM
- GI50 (MOLT-4 leukemia): < 0.0216 µM
- TGI (MOLT-4 leukemia): 17.3 µM
- GI50 (A549 NSCLC): < 0.0193 µM
- TGI (A549 NSCLC): 2.01 µM
- GI50 (OVCAR-8 ovarian): < 0.01 µM
- GI50 (KM12 colon): < 0.0156 µM
- TGI (KM12 colon): < 0.0303 µM
- TGI (SK-MEL-28 melanoma): > 47.7 µM
- GI50 (NCI-H460 lung): < 0.0189 µM
- TGI (NCI-H460 lung): > 28 µM
- GI50 (HT29 colon): < 0.0196 µM
- GI50 (NCI/ADR-RES ovarian): 0.0248 µM
- TGI (NCI/ADR-RES ovarian): 0.0629 µM
- GI50 (A498 renal): 0.666 µM
- TGI (A498 renal): 3.04 µM
- GI50 (OVCAR-3 ovarian): < 0.0263 µM
- GI50 (UACC-62 melanoma): 0.104 µM
- TGI (UACC-62 melanoma): 15.4 µM
- GI50 (RPMI-8226 leukemia): < 0.0204 µM
- GI50 (MDA-MB-231 breast): 0.0539 µM
- TGI (MDA-MB-231 breast): 0.882 µM
- GI50 (SF-295 CNS): < 0.0154 µM
- TGI (SF-295 CNS): < 0.0291 µM
- GI50 (NCI-H226 lung): 1.27 µM
- TGI (NCI-H226 lung): 24.5 µM
- GI50 (NCI-H522 lung): < 0.01 µM
- TGI (NCI-H522 lung): < 0.0126 µM
- GI50 (SW-620 colon): 1.11 µM
- TGI (SW-620 colon): 11.8 µM
- GI50 (U251 CNS): 1.26 µM
- TGI (U251 CNS): 12.8 µM
- GI50 (PC-3 prostate): 0.132 µM
- TGI (PC-3 prostate): 3.57 µM
- GI50 (HS 578T breast): 0.358 µM
- TGI (HS 578T breast): 1.89 µM
- GI50 (SNB-19 CNS): 0.104 µM
- TGI (SNB-19 CNS): 8.45 µM
- GI50 (MALME-3M melanoma): 0.156 µM
- TGI (MALME-3M melanoma): 19.4 µM
- GI50 (SK-MEL-5 melanoma): 0.636 µM
- TGI (SK-MEL-5 melanoma): 1.3 µM
- GI50 (HCT-116 colon): < 0.044 µM
- TGI (NCI-H23 lung): 14.7 µM
- GI50 (UACC-257 melanoma): < 0.01 µM
- TGI (UACC-257 melanoma): 29.3 µM
- GI50 (LOX IMVI melanoma): 0.137 µM
- TGI (LOX IMVI melanoma): 13.7 µM
- GI50 (SR leukemia): 0.0384 µM
- TGI (SR leukemia): 22.2 µM
- TGI (OVCAR-5 ovarian): 10.5 µM
- GI50 (SN12C renal): 0.0962 µM
- TGI (SN12C renal): 3.51 µM
- GI50 (DU-145 prostate): 0.235 µM
- TGI (DU-145 prostate): 0.599 µM
- GI50 (MCF7 breast): < 0.0179 µM
- GI50 (HOP-62 NSCLC): 0.68 µM
- TGI (HOP-62 NSCLC): 16 µM
- GI50 (CAKI-1 renal): < 0.0224 µM
- TGI (CAKI-1 renal): 12.6 µM
- GI50 (T-47D breast): 16.9 µM
- TGI (T-47D breast): > 100 µM
- GI50 (IGROV1 ovarian): 0.0424 µM
- TGI (IGROV1 ovarian): 16.1 µM
- GI50 (SK-OV-3 ovarian): 0.177 µM
- TGI (SK-OV-3 ovarian): 13 µM
- GI50 (COLO 205 colon): 0.0746 µM
- TGI (COLO 205 colon): 0.18 µM
- GI50 (CCRF-CEM leukemia): 0.0731 µM
- TGI (CCRF-CEM leukemia): 1.06 µM
- GI50 (OVCAR-4 ovarian): 1.52 µM
- TGI (OVCAR-4 ovarian): 11.6 µM
- GI50 (UO-31 renal): < 0.0183 µM
- TGI (UO-31 renal): 6.17 µM
- GI50 (ACHN renal): 0.4 µM
- TGI (ACHN renal): 19.5 µM
- GI50 (RXF 393 renal): 0.0203 µM
- TGI (RXF 393 renal): 2.98 µM
- TGI (SNB-75 CNS): 0.905 µM
- GI50 (HCC-2998 colon): < 0.047 µM
- GI50 (K-562 leukemia): 0.194 µM
- TGI (K-562 leukemia): 21.5 µM
- GI50 (BT-549 breast): < 0.01 µM
- GI50 (HOP-92 NSCLC): 0.705 µM
- TGI (HOP-92 NSCLC): 22.4 µM
- GI50 (SK-MEL-2 melanoma): < 0.0147 µM
- TGI (SK-MEL-2 melanoma): 10.1 µM
- GI50 (SF-268 CNS): < 0.0223 µM
- TGI (SF-268 CNS): 18.7 µM
- GI50 (TK-10 renal): 0.378 µM
- TGI (TK-10 renal): 17.3 µM
